26 molecules from patent US20250145633A1, “SUBSTITUTED FURANOPYRIMIDINE COMPOUNDS AS PDE1 INHIBITORS” (Dart NeuroScience, LLC, priority 2017, published 2025) can be followed below.

Structures are written as SMILES.

The target of one test is human PDE1B enzyme (Homo sapiens (Human), UniProt Q01064). As to the kind of experiment: IMAP TR-FRET PDE1B enzymatic assay. It is filed as biochemical. To be noted: negative log of half-maximal molar inhibitory concentration; 200 nM FAM-cAMP; values given as bins. The method in brief:
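Full-length GST-tagged human PDE1B (250 pg/well) in IMAP BSA buffer with 10 U/ml calmodulin and 2.5 mM CaCl2; compound pre-incubated 5 min at room temperature, then 200 nM (final) FAM-cAMP for 30 min. IMAP binding reagent/Tb added, 1 h; TR-FRET 520/490 ratio read. IC50 from sigmoidal dose-response fit.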
(In general: In TR-FRET formats the signal depends on donor and acceptor labels being close together.)
As to `Cc1oc2ncnc(NC3(C)CC3)c2c1C(=O)N1CCC(c2ccc(C(F)F)cc2)C1` (centres unmarked) [Example 131, 5-{3-[4-(Difluoromethyl)phenyl]pyrrolidine-1-carbonyl}-6-methyl-N-(1-methylcyclopropyl)furo[2,3-d]pyrimidin-4-amine], the “PDE1b (pIC50)” value was above 8.
Same read-out and setting: the figure for `Cc1oc2ncnc(NC3(C)CC3)c2c1C(=O)N1CCC(F)(c2ccccc2)C1` (centres unmarked) [Example 132, 5-(3-Fluoro-3-phenylpyrrolidine-1-carbonyl)-6-methyl-N-(1-methylcyclopropyl)furo[2,3-d]pyrimidin-4-amine] is above 8.
For the molecule `Cc1oc2ncnc(NC3(C)CC3)c2c1C(=O)N1CCC(F)(c2ccc(F)cc2)C1` (centres unmarked) [Example 133, 5-[3-Fluoro-3-(4-fluorophenyl)pyrrolidine-1-carbonyl]-6-methyl-N-(1-methylcyclopropyl)furo[2,3-d]pyrimidin-4-amine], the “PDE1b (pIC50)” value is above 8.
As to `Cc1oc2ncnc(NC3(C)CC3)c2c1C(=O)NC(C)(C)CCO` [Example 135, N-(4-Hydroxy-2-methylbutan-2-yl)-6-methyl-4-[(1-methylcyclopropyl)amino]furo[2,3-d]pyrimidine-5-carboxamide], the “PDE1b (pIC50)” value is above 8.
`CCC1(NC(=O)c2c(C)oc3ncnc(NC4(C)CC4)c23)CC1` [Example 145, N-(1-Ethylcyclopropyl)-6-methyl-4-[(1-methylcyclopropyl)amino]furo[2,3-d]pyrimidine-5-carboxamide]: the “PDE1b (pIC50)” value was above 8.
In the case of `Cc1oc2ncnc(NC3(C)CC3)c2c1C(=O)NC1(C(C)C)CC1` [Example 147, 6-Methyl-4-[(1-methylcyclopropyl)amino]-N-[1-(propan-2-yl)cyclopropyl]furo[2,3-d]pyrimidine-5-carboxamide], the “PDE1b (pIC50)” value is on record as above 8.
As to `Cc1oc2ncnc(NC3(C)CC3)c2c1C(=O)NC1(C2CCC2)CC1` [Example 150, N-(1-Cyclobutylcyclopropyl)-6-methyl-4-[(1-methylcyclopropyl)amino]furo[2,3-d]pyrimidine-5-carboxamide], the “PDE1b (pIC50)” value is on record as above 8.
For the molecule `Cc1oc2ncnc(NC3(C)CC3)c2c1C(=O)N1CCN(c2ncccc2F)CC1` [Example 152, 5-[4-(3-Fluoropyridin-2-yl)piperazine-1-carbonyl]-6-methyl-N-(1-methylcyclopropyl)furo[2,3-d]pyrimidin-4-amine], the “PDE1b (pIC50)” value is listed as above 8.
The same measure, in the same setting: the result for `Cc1oc2ncnc(NC3(C)CC3)c2c1C(=O)N1CCN(c2cccc(F)n2)CC1` [Example 154, 5-[4-(6-Fluoropyridin-2-yl)piperazine-1-carbonyl]-6-methyl-N-(1-methylcyclopropyl)furo[2,3-d]pyrimidin-4-amine] reads above 8.

Still in this test, the particulars now being: negative log of half-maximal molar inhibitory concentration; 200 nM FAM-cAMP; values given as bins; read-out: PDE1b (pIC50) (converted).
For the molecule `Cc1oc2ncnc(NC3(C)CC3)c2c1C(=O)NC1(c2ccccc2)COC1` [Example 130, 6-Methyl-4-[(1-methylcyclopropyl)amino]-N-(3-phenyloxetan-3-yl)furo[2,3-d]pyrimidine-5-carboxamide], the IC50 was 10 to 100 nM.
As to `Cc1oc2ncnc(NC3(C)CC3)c2c1C(=O)NCCO` [Example 134, N-(2-Hydroxyethyl)-6-methyl-4-[(1-methylcyclopropyl)amino]furo[2,3-d]pyrimidine-5-carboxamide], the IC50 is 100 to 1000 nM.
As for `Cc1oc2ncnc(NC3(C)CC3)c2c1C(=O)NC(C)C` [Example 136, 6-Methyl-4-[(1-methylcyclopropyl)amino]-N-(propan-2-yl)furo[2,3-d]pyrimidine-5-carboxamide], the IC50 is 10 to 100 nM.
As to `Cc1oc2ncnc(NC3(C)CC3)c2c1C(=O)NCC(C)C` [Example 137, 6-Methyl-4-[(1-methylcyclopropyl)amino]-N-(2-methylpropyl)furo[2,3-d]pyrimidine-5-carboxamide], the IC50 was 10 to 100 nM.
With `Cc1oc2ncnc(NC3(C)CC3)c2c1C(=O)NC(C)(C)C` [Example 138, N-tert-Butyl-6-methyl-4-[(1-methylcyclopropyl)amino]furo[2,3-d]pyrimidine-5-carboxamide], the IC50 is 10 to 100 nM.
On to `Cc1oc2ncnc(NC3(C)CC3)c2c1C(=O)NCC1CCOCC1` [Example 139, 6-Methyl-4-[(1-methylcyclopropyl)amino]-N-(oxan-4-ylmethyl)furo[2,3-d]pyrimidine-5-carboxamide], for which the IC50 is 10 to 100 nM.
For `CCC1(NC(=O)c2c(C)oc3ncnc(NC4(C)CC4)c23)CCOCC1` [Example 140, N-(4-Ethyloxan-4-yl)-6-methyl-4-[(1-methylcyclopropyl)amino]furo[2,3-d]pyrimidine-5-carboxamide], the IC50 was 10 to 100 nM.
`Cc1oc2ncnc(NC3(C)CC3)c2c1C(=O)Nc1cnn(C)c1` [Example 141, 6-Methyl-N-(1-methyl-1H-pyrazol-4-yl)-4-[(1-methylcyclopropyl)amino]furo[2,3-d]pyrimidine-5-carboxamide]: the IC50 is 10 to 100 nM.
Consider `Cc1cc(NC(=O)c2c(C)oc3ncnc(NC4(C)CC4)c23)no1` [Example 142, 6-Methyl-N-(5-methyl-1,2-oxazol-3-yl)-4-[(1-methylcyclopropyl)amino]furo[2,3-d]pyrimidine-5-carboxamide], for which the IC50 is 10 to 100 nM.
Still for that read-out and setting: the figure for `Cc1oc2ncnc(NC3(C)CC3)c2c1C(=O)Nc1nccs1` [Example 143, 6-Methyl-4-[(1-methylcyclopropyl)amino]-N-(1,3-thiazol-2-yl)furo[2,3-d]pyrimidine-5-carboxamide] is 10 to 100 nM; for `COc1ccc(NC(=O)c2c(C)oc3ncnc(NC4(C)CC4)c23)nc1` [Example 144, N-(5-Methoxypyridin-2-yl)-6-methyl-4-[(1-methylcyclopropyl)amino]furo[2,3-d]pyrimidine-5-carboxamide] it is 10 to 100 nM.
As to `Cc1oc2ncnc(NC3(C)CC3)c2c1C(=O)NC1(CO)CC1` [Example 146, N-[1-(Hydroxymethyl)cyclopropyl]-6-methyl-4-[(1-methylcyclopropyl)amino]furo[2,3-d]pyrimidine-5-carboxamide], the IC50 was 10 to 100 nM.
As for `COCC1(NC(=O)c2c(C)oc3ncnc(NC4(C)CC4)c23)CC1` [Example 148, N-[1-(Methoxymethyl)cyclopropyl]-6-methyl-4-[(1-methylcyclopropyl)amino]furo[2,3-d]pyrimidine-5-carboxamide], the IC50 is 10 to 100 nM.
As to `Cc1oc2ncnc(NC3(C)CC3)c2c1C(=O)NC1(C2CC2)CC1` [Example 149, N-(1-Cyclopropylcyclopropyl)-6-methyl-4-[(1-methylcyclopropyl)amino]furo[2,3-d]pyrimidine-5-carboxamide], the IC50 was 10 to 100 nM.
With `Cc1oc2ncnc(NC3(C)CC3)c2c1C(=O)NC1CC(c2ccc(F)cc2)C1` (centres unmarked) [Example 151, N-[3-(4-Fluorophenyl)cyclobutyl]-6-methyl-4-[(1-methylcyclopropyl)amino]furo[2,3-d]pyrimidine-5-carboxamide], the IC50 was 10 to 100 nM.
Take `Cc1oc2ncnc(NC3(C)CC3)c2c1C(=O)N1CCN(c2ncc(F)cn2)CC1` [Example 153, 5-[4-(5-Fluoropyrimidin-2-yl)piperazine-1-carbonyl]-6-methyl-N-(1-methylcyclopropyl)furo[2,3-d]pyrimidin-4-amine]: the IC50 was 10 to 100 nM.
Still for that read-out and setting: the result for `Cc1oc2ncnc(NC3(C)CC3)c2c1C(=O)N1CC[C@@H]2OCC[C@@H]21` [Example 155, 5-[(3aS,6aS)-Hexahydro-2H-furo[3,2-b]pyrrole-4-carbonyl]-6-methyl-N-(1-methylcyclopropyl)furo[2,3-d]pyrimidin-4-amine] reads 10 to 100 nM.
